In paper PMC7562719, “Discovery of a CNS penetrant small molecule SMN2 splicing modulator with improved tolerability for spinal muscular atrophy” (Scientific Reports, 2020):

Tests used:
Format in all cases: cell-based, human
GALC mRNA = experiment: qPCR of GALC transcripts in GM03813 fibroblasts; settings: for Selectivity GALC /FL-SMN2: EC50 of GALC divided by EC1.5× of FL-SMN2; for EC50: Homo sapiens, Fibroblast, GM03813 fibroblasts, 24 h, 50% total GALC mRNA reduction, 95% CI in brackets
Method: (§1) GM03813 fibroblasts, GM24468-derived MNs, NRK-49F, MDCK, CV-1, or NCMDF cells were plated at a density of 0.5 or 1.5 × 10^4, 4 × 10^4, 5 × 10^3, 5 × 10^3, 8 × 10^3, or 6 × 10^3 cells/well on 96-well plates, respectively. After approximately 6 h, the medium was added with the same volume of culture medium containing each compound at the concentration of 0.06, 0.2, 0.6, 0.2, and 6 µM. The final concentration of DMSO was adjusted to 0.1% in culture condition.
(§2) All cells were treated with above compounds for 24 h and washed once with Dulbecco’s Phosphate-Buffered Saline without Ca and Mg [D-PBS (–)] (Wako or Nakarai Tesque). In case of using GM03813 or GM24468-derived MNs, cell lysis and reverse transcription were carried out using SuperPrep Cell Lysis & RT Kit for qPCR in accordance with manufacturer’s recommendations (Toyobo, Japan). qPCR was performed using THUNDERBIRD Probe qPCR Mix (Toyobo). The final concentrations of primers and probes were adjusted to 0.4 µM and 0.15 µM, respectively (Supplementary Table 1). Cycle conditions were as follows; 95 °C for 1 min; followed by 40 cycles of denaturation at 95 °C for 15 s; annealing and elongation at 60 °C for 1 min in the ViiA7 RT-PCR system (Thermo Fisher Scientific). The copy numbers of each target were normalized to those of GAPDH.

Hs683 cells = experiment: psychosine/sphingosine ratio in Hs683 cells by LC/MS/MS; settings: 3000 nM, 12 days, normalized by sphingosine
Method: Hs683 cells were seeded at 1.5 × 10^5 cells/well in 6-well plates and were treated with TEC-1 or SMN-C3 for 12 days. The sample was extracted with EtOH and dried under nitrogen spray. Pellet was completely re-dissolved in EtOH using vortex and ultrasonication. The resulting sample was centrifuged at 15,000 rpm for 5 min at 4 °C. Analytes were separated from the supernatant and quantified by LC/MS/MS as reported by Boutin et al.[48].

GALC = GALC enzymatic assay from Hs683 cells; settings: 3 days
Method: GALC enzymatic activities were quantified as reported by Wiederschain et al.[47]. Hs683 cells were seeded at 1.5 × 10^5 cells/well in 6-well plate. Cells were treated with TEC-1 (0.1, 0.3, or 1 µM) or SMN-C3 (0.03, 0.1, 0.3, or 1 µM) for 3 days. Hs683 cells were washed with D-PBS (–), collected with ultra-pure water using a cell scraper, and homogenized with homogenizers (NS-4, NS310E, Micotechnition, Japan) for 10 s. Cell lysates were centrifuged at 600 × g for 10 min at 4 °C, followed by collection of supernatants. The concentration of protein of each sample was quantified with a BCA kit. The samples were adjusted to 1 µg protein/µL (total volume 20 µL) with ultra-pure water and then 80 µL of reaction buffer (0.25% taurocholate, 0.05% oleic acid and 0.1 mol/L citrate, pH 4.4) containing 80 µM 6-Hexadecanoylamino-4-methylumbelliferone b-D-galactopyranoside (HMU-Gal, Carbosynth, UK) was added. Stop buffer (0.2 mol/L Glycine solution with NaOH, pH 10.6) was mixed with an equal amount of ethanol. The mixture was reacted at 37 °C for 20 h. […] Signals were detected by reading the fluorescence emission at 450 nm with plate reader (Enspire, PerkinElmer) excited by 385 nm. The fluorescence intensity was corrected by the value of standard substrate of 6-hexadecanoylamino-4-methylumbelliferone (Cat. No. EH10520, Carbosynth).

FOXM1a = experiment: qPCR of FOXM1a variant in GM03813 fibroblasts; settings: 24 h, 200% total target mRNA increase, 95% CI in brackets
Method: as §1, §2

SMN2 splicing = experiment: qPCR of SMN transcripts in motor neurons derived from SMA patient iPSCs (GM24468); settings: iPSC-derived motor neurons (GM24468), 24 h
Method: GM24468 cells were differentiated to motor neurons (MNs) via a motor neuron progenitor (MNP) as previously reported. Briefly described, GM24468 were treated with a chemically defined neural medium, including DMEM/F12, Neurobasal medium at 1:1, 0.5% N2, 0.1% B27, 0.1 mM ascorbic acid (Sigma Aldrich, USA), 1 × GlutaMax, and 1 × penicillin/streptomycin. 3 µM CHIR99021 (Wako), 2 µM DMH1 (Sigma Aldrich) and 2 µM SB431542 (Wako) were added in the medium. The culture medium was changed every other day. GM24468 maintained under this condition for 6 days were induced into neuroepithelial progenitors (NEPs). NEPs were then dissociated and split with dispase (Stemcell technologies) and neural medium containing 0.1 µM RA (Sigma Aldrich), 0.5 µM Purmorphamine (Pur) (Merck, USA), 1 µM CHIR99021, 2 µM DMH1 and 2 µM SB431542. The medium was changed every other day. NEPs maintained under this condition for 6 days differentiated into OLIG2^+ MNPs. The OLIG2^+ MNPs were expanded with the same medium containing 1 µM CHIR99021, 2 µM DMH1, 2 µM SB431542, 0.1 µM RA, and 0.5 µM Pur, and split once a week. To induce MNs differentiation, OLIG2^+ MNPs cultured in suspension in the above neural medium with 0.5 µM RA and 0.1 µM Pur. The medium was changed every other day. OLIG2^+ MNPs under this condition for 6 days differentiated into MNX1^+ MNs. […]

FOXM1b = experiment: qPCR of FOXM1b/c variant in GM03813 fibroblasts; settings: for Selectivity FOXM1b /FL-SMN2: EC50 of FOXM1b divided by EC1.5× of FL-SMN2; for EC50: Homo sapiens, Fibroblast, GM03813 fibroblasts, 24 h, 50% total target mRNA reduction, 95% CI in brackets
Method: as §1, §2

FOXM1ΔC = experiment: qPCR of FOXM1ΔC variant in GM03813 fibroblasts; settings: 24 h, 300% total target mRNA increase, 95% CI in brackets
Method: as §1, §2

FL-SMN2 mRNA = experiment: qPCR of FL-SMN2 transcripts in SMA type II fibroblasts (GM03813); settings: 24 h, 50% total FL-SMN2 mRNA increase, normalized to GAPDH, 95% CI in brackets
Method: as §1, §2

Compound	Selectivity GALC /FL-SMN2 (GALC mRNA)	EC50 (GALC mRNA) [µM]	increase in psychosine compared to the control (Hs683 cells)	GALC enzymatic activity compared to TEC-1 (GALC)	EC3.0× FOXM1a (FOXM1a)	SMN2 splicing in motor neurons (SMN2 splicing; similar effects to TEC-1)	Selectivity FOXM1b /FL-SMN2 (FOXM1b)	EC50 (FOXM1b) [µM]	EC4.0× FOXM1ΔC (FOXM1ΔC)	EC1.5× FL-SMN2 (FL-SMN2 mRNA)	GALC enzymatic activity (GALC; 3000 nM)	concentration showing clear ability to modulate SMN2 splicing (SMN2 splicing) [nM]
CCN1CCC(c2cc(C)c3nc(-c4cc5c(C)nc(C)cn5n4)cc(=O)n3c2)CC1 [SMN-C3, reference compound]	4	0.459	approximately 22 fold	strongly decreased the activity of GALC	280.3 (211.4–377.7) nM	modulates SMN2 splicing	8	0.945	298.5 (248.8–355.8) nM	122.1 (74.5–221.7) nM		
Cc1cn2nc(-c3nc4ccc(N5CCN(C)CC5)cc4c(=O)[nH]3)cc2c(C)n1 [TEC-1, 2-(4,6-dimethylpyrazolo[1,5-a]pyrazin-2-yl)-6-(4-methylpiperazin-1-yl)quinazolin-4(3H)-one]	> 61	> 3	1.9 fold		1096.8 (809.7–1552.2) nM		> 61	> 3	1311.6 (864.7–2285.8) nM	49.1 (22.7–109.4) nM	slight decrease	30
